Tests used:
adult rats = test: Foot shock-induced ultrasonic vocalization (USV) in adult rats; type: in vivo, rat; settings: Rattus norvegicus, po; 10 mg/kg per os, 1 h before shocking, male Wistar rats
Protocol: Foot Shock-Induced Ultrasonic Vocalization (USV) in Adult Rats
(§1) Under stressful conditions, adult rats emit 22 kHz ultrasounds that can be reduced by various pharmacological treatments (De Vry et al, Eur. J. Pharmacol. 1993, 249, 331-339; Sanchez, Eur. J. Pharmacol. 2003, 463, 133-143). […] Therefore, a foot shock-induced vocalization paradigm in adult rats was used to assess in vivo efficacy of centrally acting GABAB receptor ligands. Behavioral measurements were carried out on male Wistar rats (200-250 g, Toxicoop, Hungary). Rats were housed in groups of four in plastic cages with a wire grid top in a temperature and light-controlled laboratory animal care unit (22±2° C., 12-h light/dark cycle, lights on at 6:00 AM) with ad libitum access to commercial pellet rat food and tap water. Investigations were approved by the Local Ethical Committee of Gedeon Richter Plc. and were carried out in strict compliance with the European Directive 2010/63/EU regarding the care and use of laboratory animals for experimental procedures and all efforts were made to minimize the number of animals as well as their suffering. In order to evoke emission of ultrasounds, animals were footshocked after a habituation period of 30 s (6 shocks, 1 s, 0.8 mA each, inter-shock interval 10 s) in a sound attenuated shocking chamber (Experimetria, 40×40×80 cm). […] Vocalizations were measured right after the last footshock for 10 min with a Metris Sonotrack system and the total time of vocalizations was registered. Vocalization of parallel vehicle treated animals was considered as control value and inhibition percent was calculated for each compound. At approximately 75 min after treatment and behavioral measurements, blood and brain samples were harvested in order to determine exposures associated with in vivo activity.

[1] = Plasma and brain exposure after USV measurement; type: in vivo; settings: rat, per os, about 75 min after treatment
Protocol: as §1

GABAB receptor = molecular target: T1, GABAB receptor (Rattus norvegicus, UniProt O88871+Q9Z0U4); test: In vitro [35S]GTPγS binding assay in rat cortical membranes; type: biochemical; settings: [35S]GTPγS binding, rat cortical membranes; read-out: In vitro PAM potency (PAM EC50)
T1 construct: from tissue; host or cells: rat brain cortex membranes
Protocol: In Vitro [^35S]GTPγS Binding Assay in Rat Cortical Membranes
Cortices of freshly harvested rat brains were dissected on an ice-cold surface and homogenized by a glass Dounce homogeniser immediately in ice-cold buffer containing 50 mM Tris, 5 mM MgCl2 and 1 mM EDTA (pH=7.6). Tissue homogenates were centrifuged at 40000 g for 15 min at 4° C. Membrane pellets were resuspended in the same buffer and membranes were incubated for 10 min at 30° C. in a shaking water bath to eliminate endogenous GABA. Homogenates were centrifuged again under the same conditions. The final pellets were resuspended in ice-cold buffer (pH=7.6) containing 50 mM Tris, 100 mM NaCl, 7 mM MgCl2, 1 mM EDTA and 1 mM dithiotreithol (DTT) to yield a concentration of 20 mg tissue weight/ml and frozen at −70° C. until use. The assay was done in a buffer containing 50 mM Tris (pH=7.4), 100 mM NaCl, 7 mM MgCl2, 1 mM EDTA and 1 mM DTT. Each assay tube contained 150 μL GDP (in a final concentration of 50 μM), 100 μL ligand and 125 μL of the membrane suspension (250 μg tissue/tube). The assay tubes were preincubated for 10 min at 30° C. to assure equilibrium. Nonspecific binding was determined in the presence of 10 μM GTPγS; basal binding was determined in the presence of buffer only. After addition of […] [^35S]GTPγS in a volume of 25 μL to the tubes, membranes were incubated for an additional 60 min at 30° C. The assay was terminated by rapid filtration through Packard UniFilter GF/B using a Packard harvester and washed four times with 1 ml ice-cold buffer. After drying the filters at 40° C. for 1 h, 40 μL Microscint (Packard) was added to the filters and radioactivity of the filters was determined by a TopCount NXT (PerkinElmer, Waltham, Mass.; Alper and Nelson, Eur. J. Pharmacol. 1998, 343, 303-312; Rinken et al, Biochem. Pharmacol. 1999, 57, 155-162). Data thus gathered were used to determine PAM EC50 values for each compound as primary in vitro activity end point.

T1 sequence (O88871 41-940): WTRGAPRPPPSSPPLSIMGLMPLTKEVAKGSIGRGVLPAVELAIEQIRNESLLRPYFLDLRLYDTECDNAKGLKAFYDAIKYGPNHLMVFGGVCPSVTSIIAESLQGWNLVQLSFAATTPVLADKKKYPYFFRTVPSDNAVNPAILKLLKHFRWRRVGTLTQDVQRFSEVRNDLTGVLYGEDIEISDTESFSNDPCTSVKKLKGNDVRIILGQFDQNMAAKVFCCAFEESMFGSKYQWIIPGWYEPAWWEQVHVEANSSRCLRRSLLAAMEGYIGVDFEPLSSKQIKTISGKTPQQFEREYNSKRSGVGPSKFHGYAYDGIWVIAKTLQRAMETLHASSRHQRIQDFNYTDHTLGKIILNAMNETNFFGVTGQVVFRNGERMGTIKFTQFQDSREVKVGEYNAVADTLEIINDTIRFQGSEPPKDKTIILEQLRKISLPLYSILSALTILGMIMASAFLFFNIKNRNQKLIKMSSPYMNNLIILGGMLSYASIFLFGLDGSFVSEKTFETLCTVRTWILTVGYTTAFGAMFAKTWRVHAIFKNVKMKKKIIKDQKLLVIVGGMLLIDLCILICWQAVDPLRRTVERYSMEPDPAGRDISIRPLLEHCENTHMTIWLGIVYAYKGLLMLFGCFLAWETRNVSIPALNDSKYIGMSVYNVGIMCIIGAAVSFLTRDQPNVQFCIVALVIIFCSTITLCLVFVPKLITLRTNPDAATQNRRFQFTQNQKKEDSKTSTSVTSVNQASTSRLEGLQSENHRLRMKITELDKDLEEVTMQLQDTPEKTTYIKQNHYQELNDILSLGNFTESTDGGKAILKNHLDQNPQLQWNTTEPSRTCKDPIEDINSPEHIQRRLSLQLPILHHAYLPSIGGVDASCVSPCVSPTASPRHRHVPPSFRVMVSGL
T1 sequence (Q9Z0U4 17-960 limits assumed): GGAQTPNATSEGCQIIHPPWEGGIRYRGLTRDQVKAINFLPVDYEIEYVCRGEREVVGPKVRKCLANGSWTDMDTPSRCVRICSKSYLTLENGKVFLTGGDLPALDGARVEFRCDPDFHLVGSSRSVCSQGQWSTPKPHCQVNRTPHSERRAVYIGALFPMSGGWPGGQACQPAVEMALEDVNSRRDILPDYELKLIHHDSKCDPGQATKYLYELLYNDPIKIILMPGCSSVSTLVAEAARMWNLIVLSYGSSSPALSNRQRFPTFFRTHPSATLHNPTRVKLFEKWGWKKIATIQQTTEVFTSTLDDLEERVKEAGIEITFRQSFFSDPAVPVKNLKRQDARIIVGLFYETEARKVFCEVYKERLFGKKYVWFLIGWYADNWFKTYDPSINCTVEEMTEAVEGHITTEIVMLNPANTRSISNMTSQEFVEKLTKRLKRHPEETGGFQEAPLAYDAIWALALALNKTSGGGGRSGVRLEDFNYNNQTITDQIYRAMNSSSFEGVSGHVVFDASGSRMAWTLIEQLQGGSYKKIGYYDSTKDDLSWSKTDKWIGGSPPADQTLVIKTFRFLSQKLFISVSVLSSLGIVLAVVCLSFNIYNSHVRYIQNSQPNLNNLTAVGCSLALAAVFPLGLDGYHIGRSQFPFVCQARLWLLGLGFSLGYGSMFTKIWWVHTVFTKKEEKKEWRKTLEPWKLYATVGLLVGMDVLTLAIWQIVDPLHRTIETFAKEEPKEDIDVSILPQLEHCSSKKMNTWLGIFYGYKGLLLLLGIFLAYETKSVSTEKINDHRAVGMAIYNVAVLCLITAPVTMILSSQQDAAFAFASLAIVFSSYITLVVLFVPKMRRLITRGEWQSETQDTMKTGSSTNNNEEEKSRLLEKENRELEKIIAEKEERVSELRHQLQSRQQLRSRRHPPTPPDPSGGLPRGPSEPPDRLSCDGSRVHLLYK

SMILES | Brain exposure at 1 mg/kg ([1]; formulation Tween) [ng/g] | Plasma exposure at 1 mg/kg ([1]; formulation Tween) [ng/mL] | EC50 (GABAB receptor) [nM] | Brain exposure at 1 mg/kg ([1]; formulation SpD1) [ng/g] | Plasma exposure at 1 mg/kg ([1]; formulation SpD1) [ng/mL] | inhibition in vivo at 10 mg/kg (adult rats) [%]
Cc1nc2cc(-c3ccc(C(F)(F)F)cc3F)nn2c(N2CCC[C@@](C(=O)O)(C(C)C)C2)c1C(C)C [Example 11, (3R)-1-{2-[2-Fluoro-4-(trifluoromethyl)phenyl]-5-methyl-6-(propan-2-yl)pyrazolo[1,5-a]pyrimidin-7-yl}-3-(propan-2-yl)piperidine-3-carboxylic acid] | 165 | 326 | 1 to 10 | – | – | 15
Cc1nc2cc(-c3ccc(C(F)(F)F)cc3Cl)nn2c(N2CCC[C@](C)(C(=O)O)C2)c1C(C)C [Example 13, (3S)-1-{2-[2-Chloro-4-(trifluoromethyl)phenyl]-5-methyl-6-(propan-2-yl)pyrazolo[1,5-a]pyrimidin-7-yl}-3-methylpiperidine-3-carboxylic acid] | 424 | 843 | 1 to 10 | – | – | 90
CC[C@]1(C(=O)O)CCCN(c2c(C(C)C)c(C)nc3cc(-c4ccc(C(F)(F)F)c(F)c4)nn23)C1 [Example 14, (3S)-3-Ethyl-1-{2-[3-fluoro-4-(trifluoromethyl)phenyl]-5-methyl-6-(propan-2-yl)pyrazolo[1,5-ala]pyrimidin-7-yl}piperidine-3-carboxylic acid] | – | – | 10 to 100 | 1962 | 2323 | 47
CC[C@]1(C(=O)O)CCCN(c2c(C(C)C)c(C)nc3c(F)c(-c4ccc(C(F)(F)F)cc4)nn23)C1 [Example 15, (3S)-3-Ethyl-1-[3-fluoro-5-methyl-6-(propan-2-yl)-2-[4-(trifluoromethyl)phenyl]pyrazolo[1,5-a]pyrimidin-7-yl]piperidine-3-carboxylic acid] | – | – | 1 to 10 | 1377 | 1317 | 85
COCC1(C(=O)O)CCCN(c2c(C(C)C)c(C)nc3cc(-c4ccc(C(F)(F)F)cc4F)nn23)C1 (stereo not drawn) [Example 17, 1-{2-[2-Fluoro-4-(trifluoromethyl)phenyl]-5-methyl-6-(propan-2-yl)pyrazolo[1,5-a]pyrimidin-7-yl}-3-(methoxymethyl)piperidine-3-carboxylic acid] | 144 | 443 | 1 to 10 | – | – | 44
CC[C@@]1(C(=O)O)CCCN(c2c(C(C)C)c(C)nc3cc(-c4ccc(Cl)cc4)nn23)C1 [Example 21] | – | – | 10 to 100 | – | – | –
Cc1nc2cc(-c3ccc(Cl)cc3)nn2c(N2CCC[C@@](C(=O)O)(C(C)C)C2)c1C(C)C [Example 22] | – | – | 10 to 100 | – | – | –
Cc1nc2cc(-c3ccc(Cl)cc3Cl)nn2c(N2CCC[C@](C(=O)O)(C(C)C)C2)c1C(C)C [Example 45] | – | – | 10 to 100 | – | – | –
Cc1nc2cc(-c3ccc(C(F)(F)F)c(F)c3)nn2c(N2CCC[C@@](C(=O)O)(C(C)C)C2)c1C(C)C [Example 58] | – | – | 10 to 100 | – | – | –
Cc1nc2c(F)c(-c3ccc(Cl)cc3)nn2c(N2CCCC(C(=O)O)C2)c1C(C)C (stereo not drawn) [Example 70] | – | – | – | – | – | 71

The next lines start with results.

Brain exposure at 1 mg/kg ([1]; formulation Tween) [ng/g] | Plasma exposure at 1 mg/kg ([1]; formulation Tween) [ng/mL] | EC50 (GABAB receptor) [nM] | Brain exposure at 1 mg/kg ([1]; formulation SpD1) [ng/g] | Plasma exposure at 1 mg/kg ([1]; formulation SpD1) [ng/mL] | SMILES | inhibition in vivo at 10 mg/kg (adult rats) [%]
395 | 358 | 10 to 100 | – | – | Cc1nc2cc(-c3ccc(Cl)cc3)nn2c(N2CCCC(C(=O)O)(C(C)C)C2)c1C(C)C (stereo not drawn) [Example 3, 1-[2-(4-Chlorophenyl)-5-methyl-6-(propan-2-yl)pyrazolo[1,5-a]pyrimidin-7-yl]-3-(propan-2-yl)piperidine-3-carboxylic acid] | 58
– | – | 10 to 100 | 857 | 1472 | CC[C@]1(C(=O)O)CCCN(c2c(C(C)C)c(C)nc3cc(-c4ccc(Cl)cc4)nn23)C1 [Example 5, (3S)-1-[2-(4-Chlorophenyl)-5-methyl-6-(propan-2-yl)pyrazolo[1,5-a]pyrimidin-7-yl]-3-ethylpiperidine-3-carboxylic acid] | 37
1326 | 1453 | 10 to 100 | – | – | CC[C@]1(C(=O)O)CCCN(c2c(C(C)C)c(C)nc3cc(-c4ccc(C(F)(F)F)cc4)nn23)C1 [Example 6, (3S)-3-Ethyl-1-[5-methyl-6-(propan-2-yl)-2-[4-(trifluoromethyl)phenyl]pyrazolo[1,5-a]pyrimidin-7-yl]piperidine-3-carboxylic acid] | 90
332 | 506 | 1 to 10 | – | – | CC[C@]1(C(=O)O)CCCN(c2c(C(C)C)c(C)nc3cc(-c4ccc(C(F)(F)F)cc4F)nn23)C1 [Example 7, (3S)-3-Ethyl-1-{2-[2-fluoro-4-(trifluoromethyl)phenyl]-5-methyl-6-(propan-2-yl)pyrazolo[1,5-a]pyrimidin-7-yl}piperidine-3-carboxylic acid] | 90
1193 | 298 | – | – | – | CC[C@@]1(C(=O)O)CCCN(c2c(C(C)C)c(C)nc3cc(-c4ccc(C(F)(F)F)cc4F)nn23)C1 [Example 8, (3R)-3-Ethyl-1-{2-[2-fluoro-4-(trifluoromethyl)phenyl]-5-methyl-6-(propan-2-yl)pyrazolo[1,5-a]pyrimidin-7-yl}piperidine-3-carboxylic acid] | 60
– | – | 10 to 100 | 1849 | 1807 | Cc1nc2cc(-c3ccc(Cl)cc3)nn2c(N2CCC[C@](C(=O)O)(C(C)C)C2)c1C(C)C [Example 9, (3S)-1-[2-(4-Chlorophenyl)-5-methyl-6-(propan-2-yl)pyrazolo[1,5-a]pyrimidin-7-yl]-3-(propan-2-yl)piperidine-3-carboxylic acid] | 39
150 | 36 | 1 to 10 | – | – | Cc1nc2cc(-c3ccc(C(F)(F)F)cc3)nn2c(N2CCC[C@](C(=O)O)(C(C)C)C2)c1C(C)C [Example 10, (3S)-1-[5-Methyl-6-(propan-2-yl)-2-[4-(trifluoromethyl)phenyl]pyrazolo[1,5-a]pyrimidin-7-yl]-3-(propan-2-yl)piperidine-3-carboxylic acid] | 30
218 | 283 | 1 to 10 | – | – | Cc1nc2cc(-c3ccc(C(F)(F)F)cc3)nn2c(N2CCC[C@](C)(C(=O)O)C2)c1C(C)C [Example 12, (3S)-3-Methyl-1-[5-methyl-6-(propan-2-yl)-2-[4-(trifluoromethyl)phenyl]pyrazolo[1,5-a]pyrimidin-7-yl]piperidine-3-carboxylic acid] | 63
28 | 103 | 10 to 100 | – | – | COCC1(C(=O)O)CCCN(c2c(C(C)C)c(C)nc3cc(-c4ccc(C(F)(F)F)cc4)nn23)C1 (stereo not drawn) [Example 16] | 41
– | – | 10 to 100 | 1093 | 1275 | CCC1(C(=O)O)CCCN(c2c(C(C)C)c(C)nc3cc(-c4ccc(Cl)cc4)nn23)C1 (stereo not drawn) [Example 20] | –
